These results are taken from patent US5668168A, “1,2-dithiin antiinfective agents” (Shaman Pharmaceuticals, Inc., priority 1995, dated 1997).

Each structure is given as a SMILES string. Converted amounts (≈) assume the structure as drawn. Read-outs that look alike come from different tables or passages of the source. Bounds are passed on as bounds.

In series [1] the test system is Trichophyton rubrum ATCC 18762. The series is described as follows: In vitro susceptibility, microdilution broth MIC, T. rubrum. The format is cell-based. Particulars: ATCC18762, 120 h, Table 1a, Sabouraud's broth, 30° C., 5 days. How it is done: (§1) MIC tests were performed by a microdilution broth assay. The fungi tested were Candida albicans ATCC 10259 and strain B311, Cryptococcus neoformans ATCC 36556, Aspergillus fumigatus ATCC 13073, and Trichophyton rubrum ATCC 18762. The yeasts were propagated on yeast morphology agar, while the filamentous fungi were grown on Sabouraud's agar. All tests were performed in Sabouraud's broth in 96-well microliter plates, with compounds diluted serially, then inoculated with 2×10^4 cfu/ml for C. albicans, 4×10^4 cfu/ml for C. neoformans, 1×10^3 cfu/ml for A. fumigatus, and 1×10^3 cfu/ml for T. rubrum (all expressed as final concentrations). Plates were incubated at 30° C. for 48 h for all fungi except T. rubrum, which was incubated for 5 days. MIC's were read as the lowest concentration completely inhibiting growth. After MIC endpoints were determined, 50 ul portions were removed and plated on yeast morphology agar to detect viable organisms, and were incubated at 30° C. for 48 h. The MFC was determined to be the well with the lowest concentration resulting in no growth.
In general terms: In broth dilution the organism is exposed to a series of concentrations in liquid medium.

A further series deals with fungi. The series is described as follows: In vitro susceptibility tests (MIC and MFC), overall statements. It counts as cell-based. Particulars: Candida, Cryptococcus, Aspergillus, medically important fungi. How it is done: as §1
For series [2], the system named is Candida albicans strain B311. The series is described as follows: In vitro susceptibility, microdilution broth MIC, C. albicans B311. It counts as cell-based. The conditions noted are these: Table 1a, Sabouraud's broth, 30° C., 48 h. As to the method: as §1
Series [3] has as its system Candida albicans ATCC 10259. The series is described as follows: Minimum fungicidal concentration (MFC), C. albicans ATCC 10259. The format is cell-based. Particulars: ATCC10259, 48 h, read-out: MIC (as headed), C. albicans 10259 (MFC). As to the method: as §1
Series [4] has as its system Aspergillus fumigatus ATCC 13073. The experiment in a line: In vitro susceptibility, microdilution broth MIC, A. fumigatus. It counts as cell-based. The conditions noted are these: ATCC13073, 48 h. As to the method: as §1
The test system of series [5] is Candida albicans ATCC 10259. The series is described as follows: In vitro susceptibility, microdilution broth MIC, C. albicans ATCC 10259. The conditions noted are these: ATCC10259, 48 h. It counts as cell-based. How it is done: as §1
Series [6] has as its system Cryptococcus neoformans ATCC 36556. The experiment in a line: In vitro susceptibility, microdilution broth MIC, C. neoformans. It counts as cell-based. The conditions noted are these: ATCC36556, 48 h. As to the method: as §1
Series [7] concerns Candida albicans strain B311. The series is described as follows: Minimum fungicidal concentration (MFC), C. albicans B311. It counts as cell-based. Particulars: B311, 48 h, Table 1a, seventh value column, read-out: MIC (as headed), C. albicans B311 (MFC). As to the method: as §1
For series [8] the following is noted: isolated from Aspilia mossambicesis and A. plurisetta; literature; cited from earlier work.
The subject of the next series is ICR mice. The series is described as follows: Systemic toxicology test in ICR mice, intraperitoneal. The format is in vivo. The conditions noted are these: three consecutive days. As to the method: (§2) Thiarubrine A and the novel 3,6-bis(hydroxymethyl)-1,2-dithiin have also been evaluated for their systemic toxicity potential. ICR mice, in groups of five or six each were injected with solutions of the test compound given intraperitoneally for three consecutive days for thiarubrine A and five consecutive days for the 1,2-dithiin. Animals were weighed daily and observed for mortalities over a 14 day period. An LD50 of 0.6 mg/kg for thiarubrine A was determined.

Assay in series [9]: as above
The format is in vivo. The conditions noted are these: mouse, in vivo, ip. How it is done: as §2

The subject of series [10] is dermal irritation and erythema, ear of ICR mice. The series is described as follows: Dermal toxicology (irritation) test in ICR mice. It counts as in vivo. The conditions noted are these: 10 mg topically. How it is done: Thiarubrine A and a new 1,2-dithiin compound 3,6-bis(hydroxymethyl)-1,2-dithiin were tested for the ability to elicit dermal irritation in ICR mice. Animals in groups of five each were lightly anesthetized, then the test substance, previously dissolved in aquaphor, was applied in the amount of 10 mg topically to the dorsal aspect of the right ear. Aquaphor without test substance was applied to the left ear as a control. Animals were inspected daily for five days for signs of dermal irritation and erythema, which was scored subjectively on a scale from 1 to 15, with 15 indicating severe toxicity.

Where [11] appears, read: Table 1a, Sabouraud's broth, 30° C., read-out: MIC A. fumigatus.
[12] abbreviates: Table 1b, Sabouraud's broth, 30° C., read-out: MIC A. fumigatus.
[13] abbreviates: Table 1a, Sabouraud's broth, 30° C., read-out: MIC C. albicans 10259.
Setting [14] is: Table 1b, Sabouraud's broth, 30° C., read-out: MIC C. albicans 10259.
[15] abbreviates: Table 1a, Sabouraud's broth, 30° C., read-out: MIC C. neoformans.
Setting [16] is: Table 1b, Sabouraud's broth, 30° C., read-out: MIC C. neoformans.

As usually defined, the MIC is the lowest concentration that inhibits growth of the organism. As usually defined, the MFC is the smallest concentration meeting the test's criterion for killing the fungus. For orientation: LD50 means the dose expected to kill half of the subjects tested.

Consider `OCC1=CC=C(CO)SS1` [Dithiin A, 3,6-Bis(hydroxymethyl)-1,2-dithiin], for which the minimal inhibitory concentration (MIC) in series [1] came to 16 µg/mL (≈ 90.8 µM); in [2] it was 31 µg/mL (≈ 176 µM); in series [4] (setting [11]) it was 16 µg/mL (≈ 90.8 µM); in [4] (setting [12]) it was 6.3 µg/mL (≈ 35.7 µM); in series [5] (setting [13]) it was 16 µg/mL (≈ 90.8 µM); in series [5] (setting [14]), 25 µg/mL (≈ 142 µM). For the same compound, the values for the minimal inhibitory concentration (MIC) in series [6] (setting [15]) and in [6] (setting [16]) were 2 µg/mL (≈ 11.3 µM) and 1.6 µg/mL (≈ 9.08 µM), respectively. In the series with fungi, the “In vitro antifungal activity (in words)” value was “potent broad spectrum antifungal activity”. Moreover, the MFC in [3] (Table 1a) stood at 63 µg/mL (≈ 357 µM).

As for `CC(=O)OCC1=CC=C(COC(C)=O)SS1` [Dithiin B, 3,6-Bis(acetyloxymethyl)-1,2-dithiin], the MFC in series [3] (Table 1a) stood at 6.3 µg/mL (≈ 24.2 µM). Moreover, the minimum inhibitory concentration (MIC) in series [4] (setting [11]) was 0.4 µg/mL (≈ 1.54 µM); in series [4] (setting [12]), 0.2 µg/mL (≈ 0.768 µM); in series [5] (setting [13]), 3.1 µg/mL (≈ 11.9 µM); in series [5] (setting [14]), 3.1 µg/mL (≈ 11.9 µM); in [6] (setting [15]), 0.8 µg/mL (≈ 3.07 µM); in series [6] (setting [16]), 0.8 µg/mL (≈ 3.07 µM).

As for `CC1=CC=C(CO)SS1` [Dithiin C], the MIC in [5] (setting [13]) was determined as 12.5 µg/mL (≈ 78 µM).

Regarding `COCOCC1=CC=C(COCOC)SS1` [Dithiin D], the MIC in series [1] stood at 8 µg/mL (≈ 30.3 µM); in series [2], 125 µg/mL (≈ 473 µM); in series [4] (setting [11]), 63 µg/mL (≈ 238 µM); in series [5] (setting [13]), 31 µg/mL (≈ 117 µM); in series [6] (setting [15]), 8 µg/mL (≈ 30.3 µM). The values for the MFC in series [3] (Table 1a) and in [7] were over 250 µg/mL and 125 µg/mL (≈ 473 µM), respectively.

Turning to `O=CC1=CC=C(C=O)SS1` [Dithiin E, 3,6-Diformyl-1,2-dithiin], the minimal inhibitory concentration (MIC) was found to be 4 µg/mL (≈ 23.2 µM) in [1]; 8 µg/mL (≈ 46.4 µM) in series [2]; 8 µg/mL (≈ 46.4 µM) in [4] (setting [11]); 8 µg/mL (≈ 46.4 µM) in series [5] (setting [13]); 4 µg/mL (≈ 23.2 µM) in [6] (setting [15]). The minimum fungicidal concentration (MFC) in series [3] (Table 1a) and in series [7] was 8 µg/mL (≈ 46.4 µM) in each case.

For the compound `CCC(=O)OCC1=CC=C(COC(=O)CC)SS1` [Dithiin G, 3,6-Bis(propionyloxymethyl)-1,2-dithiin], the MIC in [4] (setting [12]) came to 3.1 µg/mL (≈ 10.7 µM); in series [5] (setting [14]) it was 12.5 µg/mL (≈ 43.3 µM); in [6] (setting [16]), 6.3 µg/mL (≈ 21.8 µM).

`CC(C)C(=O)OCC1=CC=C(COC(=O)C(C)C)SS1` [Dithiin H, 3,6-Bis(isobutyryloxymethyl)-1,2-Dithiin]: the MIC in [4] (setting [12]), in [5] (setting [14]) and in [6] (setting [16]) was over 100 µg/mL in each case.

On to `O=C(OCC1=CC=C(COC(=O)C2CC2)SS1)C1CC1` [Dithiin I, 3,6-Bis(cyolopropanecarbonyloxymethyl)-1,2-dithiin], for which the minimum inhibitory concentration (MIC) in [4] (setting [12]) stood at 1.6 µg/mL (≈ 5.12 µM); in [5] (setting [14]), 6.3 µg/mL (≈ 20.2 µM); in [6] (setting [16]) it was 3.1 µg/mL (≈ 9.92 µM).

For the compound `O=C(OCC1=CC=C(CO)SS1)C1CC1` [Dithiin J], the MIC in [4] (setting [12]) amounted to 0.8 µg/mL (≈ 3.27 µM); in series [5] (setting [14]), 3.1 µg/mL (≈ 12.7 µM); in [6] (setting [16]), 1.6 µg/mL (≈ 6.55 µM).

On to `C=CC#CC#CC1=CC=C(C#CC)SS1` [Thia A, thiarubrine A], for which the “Biological activity (in words)” value in [8] is “wide spectrum of biological activity including antiviral and antibiotic activities”. Also, in the series on ICR mice, the “Systemic toxicity (in words)” value is reported as “highly toxic”. Besides, the LD50 at 336 h was 0.6 mg/kg in [9] (three consecutive days, 14 day observation, read-out: LD50) and about 1.8 mg/kg in [9] (total dose over three days, read-out: LD50, total dose). For the same compound, the MFC in series [3] was found to be 0.3 µg/mL (≈ 1.31 µM). In addition, the “Dermal irritation and erythema” value in series [10] (five days) is given as “pronounced toxicity”. Also, the “Average score for dermal irritation, treated ear, Day 3” value in [10] (Day 3, scale 1 to 15) is given as 7. Further, the “Average score for dermal irritation, treated ear, Day 4” value in series [10] (Day 4, scale 1 to 15) came to 9. Also, in [10] (Day 5, scale 1 to 15, control ear 4), the “Average score for dermal irritation, treated ear, Day 5” value is 9. Further, the “Average score for dermal irritation, treated ear, Day 2” value came out at 4 in [10] (first column pair of Table 2, headed Day 2, scale 1 to 15) and 6 in series [10] (second column pair of Table 2, headed Day 2, scale 1 to 15). The MIC in series [4] (read-out: MIC A. fumigatus, Table 1a, Sabouraud's broth, 30° C.) was 0.15 µg/mL (≈ 0.657 µM); in series [4] (read-out: MIC A. fumigatus, Table 1b, Sabouraud's broth, 30° C.), 0.1 µg/mL (≈ 0.438 µM); in series [5] (read-out: MIC C. albicans 10259, Table 1a, Sabouraud's broth, 30° C.), 0.15 µg/mL (≈ 0.657 µM); in series [5] (read-out: MIC C. albicans 10259, Table 1b, Sabouraud's broth, 30° C.), 0.39 µg/mL (≈ 1.71 µM); in series [6] (read-out: MIC C. neoformans, Table 1a, Sabouraud's broth, 30° C.), 0.61 µg/mL (≈ 2.67 µM); in series [6] (read-out: MIC C. neoformans, Table 1b, Sabouraud's broth, 30° C.) it was 0.78 µg/mL (≈ 3.42 µM).

Turning to `C=CC#CC1=CC=C(C#CC#CC)SS1` [thiarubrine B], the “Biological activity (in words)” value in series [8] was “wide spectrum of biological activity including antiviral and antibiotic activities”.
